From PubChem BioAssay (NCI)
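Five concentrations, 48 hours, 96-well plates. Abbreviation: GI50, concentration required for 50% inhibition of growth. The concentration for full growth arrest is given as TGI.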

Key:
Assay in all cases: NCI anticancer screen, dose series, 48 h
PC-3 prostate = test system: PC-3 prostate
HL-60(TB) leukemia = test system: HL-60(TB) leukemia
SN12C renal = test system: SN12C renal
MOLT-4 leukemia = test system: MOLT-4 leukemia
MDA-MB-435 = test system: MDA-MB-435
TK-10 renal = test system: TK-10 renal
A498 renal = test system: A498 renal
U251 CNS = test system: U251 CNS
IGROV1 ovarian = test system: IGROV1 ovarian
EKVX NSCLC = test system: EKVX NSCLC
RXF 393 renal = test system: RXF 393 renal
SK-MEL-2 melanoma = test system: SK-MEL-2 melanoma
A549 NSCLC = test system: A549 NSCLC
OVCAR-8 ovarian = test system: OVCAR-8 ovarian
NCI-H23 lung = test system: NCI-H23 lung
HCC-2998 colon = test system: HCC-2998 colon
NCI-H226 lung = test system: NCI-H226 lung
OVCAR-4 ovarian = test system: OVCAR-4 ovarian
NCI/ADR-RES ovarian = test system: NCI/ADR-RES ovarian
MDA-MB-231 breast = test system: MDA-MB-231 breast
BT-549 breast = test system: BT-549 breast
HOP-62 NSCLC = test system: HOP-62 NSCLC
SW-620 colon = test system: SW-620 colon
OVCAR-3 ovarian = test system: OVCAR-3 ovarian
DU-145 prostate = test system: DU-145 prostate
SF-539 CNS = test system: SF-539 CNS
786-0 renal = test system: 786-0 renal
HCT-116 colon = test system: HCT-116 colon
SNB-75 CNS = test system: SNB-75 CNS
SR leukemia = test system: SR leukemia
CAKI-1 renal = test system: CAKI-1 renal
SF-295 CNS = test system: SF-295 CNS
MALME-3M melanoma = test system: MALME-3M melanoma
NCI-H522 lung = test system: NCI-H522 lung
UACC-257 melanoma = test system: UACC-257 melanoma
UACC-62 melanoma = test system: UACC-62 melanoma
MCF7 breast = test system: MCF7 breast
SK-OV-3 ovarian = test system: SK-OV-3 ovarian
ACHN renal = test system: ACHN renal
HT29 colon = test system: HT29 colon
LOX IMVI melanoma = test system: LOX IMVI melanoma
SK-MEL-28 melanoma = test system: SK-MEL-28 melanoma
HCT-15 colon = test system: HCT-15 colon
KM12 colon = test system: KM12 colon
CCRF-CEM leukemia = test system: CCRF-CEM leukemia
RPMI-8226 leukemia = test system: RPMI-8226 leukemia
T-47D breast = test system: T-47D breast
HS 578T breast = test system: HS 578T breast
SNB-19 CNS = test system: SNB-19 CNS
COLO 205 colon = test system: COLO 205 colon
M14 melanoma = test system: M14 melanoma
NCI-H460 lung = test system: NCI-H460 lung
SK-MEL-5 melanoma = test system: SK-MEL-5 melanoma
OVCAR-5 ovarian = test system: OVCAR-5 ovarian
SF-268 CNS = test system: SF-268 CNS
K-562 leukemia = test system: K-562 leukemia
UO-31 renal = test system: UO-31 renal
HOP-92 NSCLC = test system: HOP-92 NSCLC

Work on `COCCOC(=O)NC(=O)Nc1ccc(/C(=N/O)c2ccc(Cl)cc2)cc1` yielded a GI50 (PC-3 prostate) of 141 nM, a TGI (PC-3 prostate) of 64200 nM and a GI50 (HL-60(TB) leukemia) of 78.3 nM. For the same compound, the TGI (HL-60(TB) leukemia) was 137 nM, the GI50 (SN12C renal) was 157 nM and the TGI (SN12C renal) was 59300 nM. The GI50 (MOLT-4 leukemia) was 109 nM, the TGI (MOLT-4 leukemia) was 7760 nM and the GI50 (MDA-MB-435) was 92 nM. It also gave a TGI (MDA-MB-435) of 374 nM, a GI50 (TK-10 renal) of 16500 nM and a TGI (TK-10 renal) greater than 82600 nM. For the same compound, the GI50 (A498 renal) was 179 nM, the TGI (A498 renal) was 3460 nM and the GI50 (U251 CNS) was 120 nM. For the same compound, the TGI (U251 CNS) was 33000 nM, the GI50 (IGROV1 ovarian) was 269 nM and the TGI (IGROV1 ovarian) was greater than 69000 nM. The GI50 (EKVX NSCLC) was 161 nM, the TGI (EKVX NSCLC) was greater than 89800 nM and the GI50 (RXF 393 renal) was 86.6 nM. It also gave a TGI (RXF 393 renal) of 3200 nM, a TGI (SK-MEL-2 melanoma) of 29000 nM and a GI50 (A549 NSCLC) of 284 nM. For the same compound, the TGI (A549 NSCLC) was greater than 85300 nM, the GI50 (OVCAR-8 ovarian) was 188 nM and the TGI (OVCAR-8 ovarian) was 34700 nM. The GI50 (NCI-H23 lung) was 221 nM, the TGI (NCI-H23 lung) was 51400 nM and the GI50 (HCC-2998 colon) was 200 nM. The TGI (HCC-2998 colon) was 7040 nM, the GI50 (NCI-H226 lung) was 1140 nM and the TGI (NCI-H226 lung) was 39400 nM. For the same compound, the GI50 (OVCAR-4 ovarian) was 385 nM, the TGI (OVCAR-4 ovarian) was 54200 nM and the TGI (NCI/ADR-RES ovarian) was 7310 nM. For the same compound, the GI50 (MDA-MB-231 breast) was 166 nM, the TGI (MDA-MB-231 breast) was 11000 nM and the GI50 (BT-549 breast) was 580 nM. It also gave a TGI (BT-549 breast) of 39600 nM, a GI50 (HOP-62 NSCLC) of 127 nM and a TGI (HOP-62 NSCLC) of 41200 nM. The GI50 (SW-620 colon) was 109 nM, the TGI (SW-620 colon) was greater than 100000 nM and the GI50 (OVCAR-3 ovarian) was 99.1 nM. It also gave a TGI (OVCAR-3 ovarian) of 4400 nM, a GI50 (DU-145 prostate) of 121 nM and a TGI (DU-145 prostate) of 20400 nM. For the same compound, the GI50 (SF-539 CNS) was 121 nM, the TGI (SF-539 CNS) was 341 nM and the GI50 (786-0 renal) was 249 nM. The TGI (786-0 renal) was 25700 nM, the GI50 (HCT-116 colon) was 112 nM and the TGI (HCT-116 colon) was 23600 nM. For the same compound, the GI50 (SNB-75 CNS) was 129 nM, the TGI (SNB-75 CNS) was 7940 nM and the GI50 (SR leukemia) was 54.6 nM. It also gave a TGI (SR leukemia) of 10800 nM, a TGI (CAKI-1 renal) greater than 100000 nM and a GI50 (SF-295 CNS) of 123 nM. For the same compound, the TGI (SF-295 CNS) was 559 nM, the GI50 (MALME-3M melanoma) was 11900 nM and the TGI (MALME-3M melanoma) was 33100 nM. For the same compound, the GI50 (NCI-H522 lung) was 123 nM, the TGI (NCI-H522 lung) was 5580 nM and the GI50 (UACC-257 melanoma) was 13000 nM. The TGI (UACC-257 melanoma) was 48900 nM, the GI50 (UACC-62 melanoma) was 109 nM and the TGI (UACC-62 melanoma) was 15800 nM. The GI50 (MCF7 breast) was 98.9 nM, the TGI (MCF7 breast) was 37900 nM and the GI50 (SK-OV-3 ovarian) was 118 nM. It also gave a TGI (SK-OV-3 ovarian) of 25100 nM, a GI50 (ACHN renal) of 186 nM and a TGI (ACHN renal) of 48800 nM. It also gave a GI50 (HT29 colon) of 108 nM, a TGI (HT29 colon) of 15300 nM and a GI50 (LOX IMVI melanoma) of 144 nM. For the same compound, the TGI (LOX IMVI melanoma) was 23700 nM, the GI50 (SK-MEL-28 melanoma) was 11500 nM and the TGI (SK-MEL-28 melanoma) was 48000 nM. The GI50 (HCT-15 colon) was 84.2 nM, the TGI (HCT-15 colon) was 19800 nM and the GI50 (KM12 colon) was 99.6 nM. The TGI (KM12 colon) was 29100 nM, the GI50 (CCRF-CEM leukemia) was 98.9 nM and the TGI (CCRF-CEM leukemia) was 28100 nM. The GI50 (RPMI-8226 leukemia) was 129 nM, the TGI (RPMI-8226 leukemia) was 19000 nM and the GI50 (T-47D breast) was 8820 nM. It also gave a TGI (T-47D breast) of 50500 nM, a GI50 (HS 578T breast) of 157 nM and a TGI (HS 578T breast) of 34300 nM. The GI50 (SNB-19 CNS) was 535 nM, the TGI (SNB-19 CNS) was greater than 100000 nM and the GI50 (COLO 205 colon) was 140 nM. For the same compound, the TGI (COLO 205 colon) was 2280 nM, the GI50 (M14 melanoma) was 84.3 nM and the TGI (M14 melanoma) was 18400 nM. It also gave a GI50 (NCI-H460 lung) of 129 nM, a TGI (NCI-H460 lung) of 13700 nM and a GI50 (SK-MEL-5 melanoma) of 81.7 nM. For the same compound, the TGI (SK-MEL-5 melanoma) was 2850 nM, the GI50 (OVCAR-5 ovarian) was 308 nM and the TGI (OVCAR-5 ovarian) was 52800 nM. It also gave a GI50 (SF-268 CNS) of 209 nM, a TGI (SF-268 CNS) greater than 100000 nM and a GI50 (K-562 leukemia) of 63.3 nM. The TGI (K-562 leukemia) was 31900 nM, the GI50 (UO-31 renal) was 284 nM and the TGI (UO-31 renal) was 26500 nM. For the same compound, the GI50 (HOP-92 NSCLC) was 1400 nM and the TGI (HOP-92 NSCLC) was 44100 nM.
